Experimental data reported in ChEMBL document CHEMBL5058564, “EUbOPEN Chemogenomics Library 2 (Incucyte)” (2022).

Tests used:
Assay type in all cases: toxicity, cell-based
HEK-293T = experiment: Incucyte cell viability with HEK293T; details: human, 10 µM, compound concentration 10 uM
Fibroblast = experiment: Incucyte cell viability with human fibroblast; details: 10 µM, compound concentration 10 uM
U2OS = experiment: Incucyte cell viability with U2OS; details: human, 10 µM, compound concentration 10 uM
[1] = 6 h, replicate number 1, timepoint 6 hours
[2] = 6 h, replicate number 2, timepoint 6 hours
[3] = 12 h, replicate number 1, timepoint 12 hours
[4] = 12 h, replicate number 2, timepoint 12 hours
[5] = 18 h, replicate number 1, timepoint 18 hours
[6] = 18 h, replicate number 2, timepoint 18 hours
[7] = 24 h, replicate number 1, timepoint 24 hours
[8] = 24 h, replicate number 2, timepoint 24 hours
[9] = 0 h, replicate number 1, timepoint 0 hours
[10] = 0 h, replicate number 2, timepoint 0 hours
Note: unitless GR value; below 1 slowed growth and below 0 cell loss.

**Q.** `CC(=O)NCC(=O)N1[C@@H]2CC[C@H]1c1ccc(Nc3ncc(C(F)(F)F)c(NC4CCC4)n3)cc12` [PF-03814735] was tested. Which “Growth Rate” value (HEK-293T; [1]) did it give?
**A.** -0.73

**Q.** What about the “Growth Rate” value (HEK-293T; [2]) of the same molecule?
**A.** -0.88

**Q.** And the “Growth Rate” value (HEK-293T; [3])?
**A.** -0.54

**Q.** And the “Growth Rate” value (HEK-293T; [4])?
**A.** -0.65

**Q.** And the “Growth Rate” value (HEK-293T; [5])?
**A.** -0.45

**Q.** What about the “Growth Rate” value (HEK-293T; [6]) of the same molecule?
**A.** -0.48

**Q.** What about the “Growth Rate” value (HEK-293T; [7]) of the same molecule?
**A.** -0.31

**Q.** What about the “Growth Rate” value (HEK-293T; [8]) of the same molecule?
**A.** -0.41

**Q.** And the “Growth Rate” value (Fibroblast; [9])?
**A.** -0.04

**Q.** And the “Growth Rate” value (Fibroblast; [10])?
**A.** -0.37

**Q.** What about the “Growth Rate” value (Fibroblast; [3]) of the same molecule?
**A.** 0.58

**Q.** What about the “Growth Rate” value (Fibroblast; [5]) of the same molecule?
**A.** 0.72

**Q.** And the “Growth Rate” value (Fibroblast; [6])?
**A.** 0.79

**Q.** What about the “Growth Rate” value (Fibroblast; [7]) of the same molecule?
**A.** 0.26

**Q.** What about the “Growth Rate” value (Fibroblast; [8]) of the same molecule?
**A.** 0.62

**Q.** What about the “Growth Rate” value (U2OS; [9]) of the same molecule?
**A.** -0.24

**Q.** And the “Growth Rate” value (U2OS; [3])?
**A.** 0.23

**Q.** And the “Growth Rate” value (U2OS; [4])?
**A.** 0.56

**Q.** What about the “Growth Rate” value (U2OS; [5]) of the same molecule?
**A.** 0.36

**Q.** What about the “Growth Rate” value (U2OS; [6]) of the same molecule?
**A.** 0.22

**Q.** And the “Growth Rate” value (U2OS; [7])?
**A.** 0.28

**Q.** And the “Growth Rate” value (U2OS; [8])?
**A.** 0.12

**Q.** `O=C(NCC(=O)N1CC[C@H](N[C@H]2CC[C@@](O)(c3ccc(-c4ncccn4)cn3)CC2)C1)c1cccc(C(F)(F)F)c1` [PF-4136309] was tested. Which “Growth Rate” value (HEK-293T; [10]) did it give?
**A.** 0.66

**Q.** And the “Growth Rate” value (HEK-293T; [1])?
**A.** 1

**Q.** And the “Growth Rate” value (HEK-293T; [2])?
**A.** 0.86

**Q.** What about the “Growth Rate” value (HEK-293T; [3]) of the same molecule?
**A.** 0.73

**Q.** And the “Growth Rate” value (HEK-293T; [7])?
**A.** 0.99

**Q.** What about the “Growth Rate” value (Fibroblast; [10]) of the same molecule?
**A.** 0.71

**Q.** And the “Growth Rate” value (Fibroblast; [1])?
**A.** 0.01

**Q.** What about the “Growth Rate” value (Fibroblast; [3]) of the same molecule?
**A.** 0.15

**Q.** What about the “Growth Rate” value (Fibroblast; [5]) of the same molecule?
**A.** 0.3

**Q.** What about the “Growth Rate” value (Fibroblast; [7]) of the same molecule?
**A.** 0.41

**Q.** And the “Growth Rate” value (U2OS; [9])?
**A.** 0.62

**Q.** And the “Growth Rate” value (U2OS; [2])?
**A.** 0.3

**Q.** What about the “Growth Rate” value (U2OS; [4]) of the same molecule?
**A.** 0.53

**Q.** And the “Growth Rate” value (U2OS; [5])?
**A.** 1

**Q.** And the “Growth Rate” value (U2OS; [6])?
**A.** 0.8

**Q.** And the “Growth Rate” value (U2OS; [7])?
**A.** 0.7

**Q.** And the “Growth Rate” value (U2OS; [8])?
**A.** 0.9

**Q.** For `Cc1cc(-c2ccc3c(c2)CC[C@H]3N2CC3(CCN(C(=O)Cc4cn5cc(C)sc5n4)CC3)C2)ncn1` [PF-5190457], which “Growth Rate” value (HEK-293T; [10]) is on record?
**A.** 0.77

**Q.** And the “Growth Rate” value (HEK-293T; [5])?
**A.** 0.98

**Q.** What about the “Growth Rate” value (Fibroblast; [10]) of the same molecule?
**A.** 0.62

**Q.** What about the “Growth Rate” value (Fibroblast; [1]) of the same molecule?
**A.** -0.34

**Q.** What about the “Growth Rate” value (Fibroblast; [3]) of the same molecule?
**A.** 0.22

**Q.** And the “Growth Rate” value (Fibroblast; [4])?
**A.** 0.88

**Q.** What about the “Growth Rate” value (Fibroblast; [5]) of the same molecule?
**A.** 0.37

**Q.** What about the “Growth Rate” value (Fibroblast; [7]) of the same molecule?
**A.** 0.57

**Q.** What about the “Growth Rate” value (U2OS; [10]) of the same molecule?
**A.** -0.98

**Q.** What about the “Growth Rate” value (U2OS; [4]) of the same molecule?
**A.** 0.99

**Q.** What about the “Growth Rate” value (U2OS; [5]) of the same molecule?
**A.** 0.94

**Q.** Which results are given for `CC(COc1ccccc1)N(CCCl)Cc1ccccc1.Cl` (stereo unspecified) [PHENOXYBENZAMINE HYDROCHLORIDE]?
**A.** Growth Rate (HEK-293T; [10]): 0.07; Growth Rate (HEK-293T; [1]): 0.03; Growth Rate (HEK-293T; [3]): 0.28; Growth Rate (HEK-293T; [5]): 0.49; Growth Rate (HEK-293T; [6]): 1; Growth Rate (HEK-293T; [7]): 0.56; Growth Rate (Fibroblast; [1]): 0.45; Growth Rate (Fibroblast; [3]): 0.55; Growth Rate (Fibroblast; [5]): 0.49; Growth Rate (Fibroblast; [7]): 0.51; Growth Rate (U2OS; [10]): 0.42; Growth Rate (U2OS; [5]): 0.94

**Q.** Which “Growth Rate” value (HEK-293T; [1]) does the source give for `CC(C)COc1ccc(CNC(=O)N(Cc2ccc(F)cc2)C2CCN(C)CC2)cc1` [PIMAVANSERIN] here?
**A.** -0.67

**Q.** What about the “Growth Rate” value (HEK-293T; [2]) of the same molecule?
**A.** 0.4

**Q.** And the “Growth Rate” value (HEK-293T; [3])?
**A.** -0.29

**Q.** What about the “Growth Rate” value (HEK-293T; [4]) of the same molecule?
**A.** 0.31

**Q.** What about the “Growth Rate” value (HEK-293T; [5]) of the same molecule?
**A.** -0.21

**Q.** What about the “Growth Rate” value (HEK-293T; [6]) of the same molecule?
**A.** 0.1

**Q.** What about the “Growth Rate” value (HEK-293T; [7]) of the same molecule?
**A.** -0.29

**Q.** What about the “Growth Rate” value (HEK-293T; [8]) of the same molecule?
**A.** -0.01

**Q.** What about the “Growth Rate” value (Fibroblast; [1]) of the same molecule?
**A.** 0.97

**Q.** And the “Growth Rate” value (Fibroblast; [2])?
**A.** -0.26

**Q.** What about the “Growth Rate” value (Fibroblast; [3]) of the same molecule?
**A.** 0.37

**Q.** What about the “Growth Rate” value (Fibroblast; [4]) of the same molecule?
**A.** -0.05

**Q.** What about the “Growth Rate” value (Fibroblast; [5]) of the same molecule?
**A.** 0.14

**Q.** And the “Growth Rate” value (Fibroblast; [7])?
**A.** 0.27

**Q.** What about the “Growth Rate” value (Fibroblast; [8]) of the same molecule?
**A.** 0.26

**Q.** What about the “Growth Rate” value (U2OS; [1]) of the same molecule?
**A.** 0.56

**Q.** What about the “Growth Rate” value (U2OS; [2]) of the same molecule?
**A.** 0.04

**Q.** And the “Growth Rate” value (U2OS; [3])?
**A.** 0.62

**Q.** What about the “Growth Rate” value (U2OS; [4]) of the same molecule?
**A.** 0.31

**Q.** What about the “Growth Rate” value (U2OS; [5]) of the same molecule?
**A.** 0.57

**Q.** What about the “Growth Rate” value (U2OS; [6]) of the same molecule?
**A.** 0.26

**Q.** And the “Growth Rate” value (U2OS; [7])?
**A.** 0.5

**Q.** What about the “Growth Rate” value (U2OS; [8]) of the same molecule?
**A.** 0.24

**Q.** Which “Growth Rate” value (HEK-293T; [10]) does the source give for `CC(C)NCC(O)COc1cccc2[nH]ccc12` (stereo unspecified) [PINDOLOL] here?
**A.** -0.05

**Q.** What about the “Growth Rate” value (HEK-293T; [1]) of the same molecule?
**A.** 0.7

**Q.** And the “Growth Rate” value (HEK-293T; [5])?
**A.** 0.97

**Q.** And the “Growth Rate” value (HEK-293T; [6])?
**A.** 0.94

**Q.** And the “Growth Rate” value (HEK-293T; [7])?
**A.** 0.82

**Q.** And the “Growth Rate” value (HEK-293T; [8])?
**A.** 0.98

**Q.** What about the “Growth Rate” value (Fibroblast; [9]) of the same molecule?
**A.** 0.32

**Q.** What about the “Growth Rate” value (Fibroblast; [10]) of the same molecule?
**A.** -0.46

**Q.** What about the “Growth Rate” value (Fibroblast; [3]) of the same molecule?
**A.** 0.78

**Q.** What about the “Growth Rate” value (Fibroblast; [5]) of the same molecule?
**A.** 0.94

**Q.** What about the “Growth Rate” value (Fibroblast; [7]) of the same molecule?
**A.** 0.9

**Q.** And the “Growth Rate” value (U2OS; [9])?
**A.** -0.36

**Q.** What about the “Growth Rate” value (U2OS; [10]) of the same molecule?
**A.** 0.98

**Q.** And the “Growth Rate” value (U2OS; [1])?
**A.** 0.52

**Q.** And the “Growth Rate” value (U2OS; [3])?
**A.** 0.93

**Q.** And the “Growth Rate” value (U2OS; [5])?
**A.** 0.88

**Q.** What about the “Growth Rate” value (U2OS; [7]) of the same molecule?
**A.** 0.7

**Q.** Which “Growth Rate” value (HEK-293T; [5]) does the source give for `Cc1noc(C)c1-c1cnc2c(-c3ccc(C(=O)O)cc3)cn([C@@H](C)c3ccccn3)c2c1` [PLX-51107] here?
**A.** 0.88

**Q.** What about the “Growth Rate” value (HEK-293T; [7]) of the same molecule?
**A.** 0.6

**Q.** What about the “Growth Rate” value (Fibroblast; [10]) of the same molecule?
**A.** 0.17

**Q.** And the “Growth Rate” value (Fibroblast; [1])?
**A.** 0.13

**Q.** What about the “Growth Rate” value (Fibroblast; [2]) of the same molecule?
**A.** 0.81

**Q.** And the “Growth Rate” value (Fibroblast; [4])?
**A.** 0.99

**Q.** And the “Growth Rate” value (U2OS; [9])?
**A.** -0.01

**Q.** And the “Growth Rate” value (U2OS; [10])?
**A.** -0.06

**Q.** And the “Growth Rate” value (U2OS; [1])?
**A.** 0.72

**Q.** And the “Growth Rate” value (U2OS; [2])?
**A.** 0.86

**Q.** And the “Growth Rate” value (U2OS; [3])?
**A.** 0.5

**Q.** And the “Growth Rate” value (U2OS; [5])?
**A.** 0.73

**Q.** And the “Growth Rate” value (U2OS; [6])?
**A.** 0.96

**Q.** What about the “Growth Rate” value (U2OS; [7]) of the same molecule?
**A.** 0.96
